In patent US7718360B2, “Composition (RCUD) for protecting and/or repairing DNA from oxidative damages and a method thereof” (Council of Scientific & Industrial Research, priority 2003, dated 2010):
Numbered stars: 1 amine (or outer) side, 2 acyl side, 3 side chain; on linkers, the order of the positions; unused ones are H or OH. Bridge positions count the residues as written; N and C are the ends. Square brackets hold non-standard residues; d marks the D form. Peptide text beside a SMILES is read from it. I, II: the chains in the order shown. Actinocin(9to1) = Cc1c2oc3c(C)ccc(C(=O)[*:1])c3nc-2c(C(=O)[*:2])c(N)c1=O; NMeV = CN[C@H](C(=O)O)C(C)C; Sar = CNCC(=O)O

Experiments:
Type in all cases: cell-based
[1] = system: polymorphonuclear leucocytes; assay: DNA damage induced by hydrogen peroxide (H2O2) and protection by redistilled cow's urine distillate
Protocol: (§1) To 5 ml of whole blood 15 ml of solution A is added, mixed well and kept between 2 and 4° C. for 30 minutes. The mixture was centrifuged at 800×g for 10 minutes. The supernatant is discarded, the pellet was washed with balanced salt solution and washing is discarded after centrifugation at 800×g for 10 minutes. This step was done twice. The pellet comprises of peripheral polymorphonuclear leukocytes (PMNs) which are suspended in predetermined amount of solution B.
(§2) The volume in each tube was made up to 2 ml by adding BSS solution. The mixture is incubated at 37° C. for 1 hr in 5% CO2 incubator with 95% humidity. After incubation, 5 ml of ice cold 0.9% NaCl was added in each tube, centrifuged at 800 g for 10 minutes and the supernatant is discarded. To the pellet in each tube 1.5 ml of solution B was added. The tubes (control and three experimental) are mixed thoroughly and the mixture was equally distributed in the volume of 0.2 ml in 3 tubes designated as B, P and T, then 200 μl of solution C was added. The three tubes B, P & T, were kept in cold (0° C.) for 10 minutes after mixing well in order to lyse the cells. To tube T 400 μl of solution E was added. Thereafter, 200 μl of solution D was added to all the tubes B, P and T. The tubes were kept at 0° C. for 30 minutes. Thereafter, contents of the B tube was sonicated for 30 second three times. B, P and T were further incubated at 20° C. for 1 hr. To B and P tubes 400 μl of solution E was added and the tubes were incubated at 0° C. for 10 minutes. 1.5 ml of solution F are added to all the tubes, homogenized on a vortex shaker and subjected to fluorescence spectrophotometric analyses within 15 minutes with 520 nm excitation and at 590 nm emission. The percentage of double stranded DNA remaining was determined using the following formula.
(§3) [formula] • Where P, B and T are the fluorescence emissions at 590 nm.
(§4) One ml of PMNs suspended in solution B containing around 1×10^6 cells were taken in four tubes A, B, C and D. To tube B, 60 μl of redistilled cow urine distillate (RCUD) was added and incubated at 37° C. for 10 minutes.
(§5) To tube A only 60 μl of RCUD was added; the volume was made up with BSS. The mixture was incubated at 37° C. for 1 hr in 5% CO2 incubator with 95% humidity. The rest of the protocol was followed as described under C and D.

[2] = system: polymorphonuclear leucocytes; assay: DNA damage induced by manganese dioxide (MnO2) and protection by redistilled cow's urine distillate; conditions: Table 4; MnO2 20 μl alone (positive control)
Protocol: as §1
as §2, with “formula. [Krishnamurthi et al. (2003) & Bimboim & Jevcak (1981)].” for “formula.”
as §3, §4, §5

[3] = system: polymorphonuclear leucocytes; assay: DNA damage induced by actinomycin D and protection by redistilled cow's urine distillate; conditions: Table 2; Actinomycin D alone (positive control)
Protocol: as §1
as §2, with “formula. [Krishnamurthi et al. (2003) & Bimboim & Jevcak (1981)].” for “formula.”
as §3, §4, §5

[4] = Table 3, H2O2 alone (positive control)
[5] = Table 5, H2O2 10 μl alone (positive control)
[6] = Table 6, H2O2 10 μl alone (positive control)

SMILES: OO [Hydrogen Peroxide (H2O2), Hydrogen Peroxide]
- Mean, percentage of double stranded DNA remaining [1, 4]: 31 percentage
- Set I, percentage of double stranded DNA remaining [1, 4]: 20 percentage
- Set II, percentage of double stranded DNA remaining [1, 4]: 29 percentage
- Set III, percentage of double stranded DNA remaining [1, 4]: 24 percentage
- Set IV, percentage of double stranded DNA remaining [1, 4]: 43 percentage
- Set V, percentage of double stranded DNA remaining [1, 4]: 38 percentage
- Mean, percentage of double stranded DNA remaining [1, 5]: 26 percentage
- Set I, percentage of double stranded DNA remaining [1, 5]: 24 percentage
- Set II, percentage of double stranded DNA remaining [1, 5]: 24 percentage
- Set III, percentage of double stranded DNA remaining [1, 5]: 24 percentage
- Set IV, percentage of double stranded DNA remaining [1, 5]: 33 percentage
- Set V, percentage of double stranded DNA remaining [1, 5]: 24 percentage
- Mean, percentage of double stranded DNA remaining [1, 6]: 26 percentage
- Set I, percentage of double stranded DNA remaining [1, 6]: 24 percentage
- Set II, percentage of double stranded DNA remaining [1, 6]: 24 percentage
- Set III, percentage of double stranded DNA remaining [1, 6]: 24 percentage
- Set IV, percentage of double stranded DNA remaining [1, 6]: 33 percentage
- Set V, percentage of double stranded DNA remaining [1, 6]: 24 percentage

SMILES: [O]=[Mn]=[O] [Manganese dioxide (MnO2), Manganese dioxide]
- Mean, percentage of double stranded DNA remaining [2]: 21 percentage
- Set I, percentage of double stranded DNA remaining [2]: 22 percentage
- Set II, percentage of double stranded DNA remaining [2]: 30 percentage
- Set III, percentage of double stranded DNA remaining [2]: 22 percentage
- Set IV, percentage of double stranded DNA remaining [2]: 15 percentage
- Set V, percentage of double stranded DNA remaining [2]: 16 percentage

SMILES: Cc1c2oc3c(C)ccc(C(=O)N[C@@H]4C(=O)N[C@H](C(C)C)C(=O)N5CCC[C@H]5C(=O)N(C)CC(=O)N(C)[C@@H](C(C)C)C(=O)O[C@@H]4C)c3nc-2c(C(=O)N[C@@H]2C(=O)N[C@H](C(C)C)C(=O)N3CCC[C@H]3C(=O)N(C)CC(=O)N(C)[C@@H](C(C)C)C(=O)O[C@@H]2C)c(N)c1=O [Actinomycin D] (I: T[dV]P[Sar][NMeV] / II: T[dV]P[Sar][NMeV]; ester I:1-I:C, II:1-II:C; linker I:N-II:N via Actinocin(9to1))
- Mean, percentage of double stranded DNA remaining [3]: 38 percentage
- Set I, percentage of double stranded DNA remaining [3]: 40 percentage
- Set II, percentage of double stranded DNA remaining [3]: 38 percentage
- Set III, percentage of double stranded DNA remaining [3]: 44 percentage
- Set IV, percentage of double stranded DNA remaining [3]: 28 percentage
- Set V, percentage of double stranded DNA remaining [3]: 39 percentage
